Experimental data taken from US12091425B2 (AMGEN INC., priority 2016, dated 2024).
Like-named read-outs stand apart in the source and are kept apart here.

Tests used:
[1] = test system: OPM-2 human multiple myeloma cell line; test: Cell Viability Assay (OPM-2 10 FBS); assay type: cell-based; settings: Homo sapiens, OPM-2, 16 h, OPM-2 cells, 16 h, CellTiter-Glo
Summary of the method: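 IC50 from 4-parameter logistic fit of CellTiter-Glo luminescence. 3000 cells/well, 10% FBS medium, serial compound dilutions, 16 h, 37 °C/5% CO2; read 25 min post-reagent.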

[2] = biological target: T1, Mcl-1/Bim interaction, recombinant human Mcl-1 (171-327) (Homo sapiens, UniProt Q07820); test: Cell free Mcl-1: Bim Affinity Assay (Mcl-1 HTRF); assay type: binding; settings: TR-FRET, 0.1 nM Mcl-1 (171-327), 0.05 nM biotin-Bim (51-76)
T1 construct: made in house
Summary of the method: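 Compounds were mixed with the protein and a biotinylated Bim peptide spanning human residues 51-76. Plates were left overnight, then TR-FRET signal was measured. A four-parameter sigmoidal model applied to duplicate competition data gave IC50.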

[3] = rcm bond, 16-membered ring, Hoveyda-Grubbs II, AcOH
[4] = from C=CC[C@H](C)NS(=O)(=O)NC(=O)c1ccc2c(c1)N(C[C@@H]1CC[C@H]1[C@@H](O)C=C)C[C@@]1(CCCc3cc(Cl)ccc31)CO2

T1 sequence (Q07820 171-327): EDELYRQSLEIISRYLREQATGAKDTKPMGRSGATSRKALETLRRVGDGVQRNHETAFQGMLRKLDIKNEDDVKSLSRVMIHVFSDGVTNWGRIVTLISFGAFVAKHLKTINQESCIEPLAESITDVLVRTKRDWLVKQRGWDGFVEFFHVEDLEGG

Structure (SMILES)	IC50 [1] [nM]	IC50 [2] [nM]	ring closure, yield after HPLC ([3]; from C=CCCN(CC)S(=O)(=O)NC(=O)c1ccc2c(c1)N(C[C@@H]1CC[C@H]1[C@@H](O)/C=C/CCC)C[C@@]1(CCCc3cc(Cl)ccc31)CO2, 2.9 mM) [%]	ring closure, yield after HPLC [3, 4] [%]
CCN1CC/C=C/[C@H](O)[C@@H]2CC[C@H]2CN2C[C@@]3(CCCc4cc(Cl)ccc43)COc3ccc(cc32)C(=O)NS1(=O)=O (single isomer, unassigned) [Example 29]	1280	0.66	22.2	
C[C@H]1C/C=C\[C@H](O)[C@@H]2CC[C@H]2CN2C[C@@]3(CCCc4cc(Cl)ccc43)COc3ccc(cc32)C(=O)NS(=O)(=O)N1 (single isomer, unassigned) [Example 62]	362	0.266		2.1
C[C@H]1C/C=C/[C@H](O)[C@@H]2CC[C@H]2CN2C[C@@]3(CCCc4cc(Cl)ccc43)COc3ccc(cc32)C(=O)NS(=O)(=O)N1 [Example 61, (1S,3′R,6′R,7′S,8′E,11′S)-6-chloro-7′-hydroxy-11′-methyl-3,4-dihydro-2H,15′H-spiro[naphthalene-1,22′-[20]oxa[13]thia[1,12,14]triazatetracyclo[14.7.2.0^3,6.0^19,24]pentacosa[8,16,18,24]tetraen]-15′-one 13,13′-dioxide]	278	0.241		50.1
